Measured values reported in patent publication US11547687B2, “Neprilysin inhibitors” (THERAVANCE BIOPHARMA R&D IP, LLC, priority 2011, dated 2023).

Target: human NEP (Homo sapiens (Human), UniProt P08473)
Experiment: In vitro enzyme inhibition assay at human NEP (Assay 1)
Format: biochemical
Settings: pKi values at human NEP, reported as ranges

CC(C)COC(=O)C(=O)N[C@H](Cc1ccc(-c2cc(Cl)ccc2Cl)cc1)C[C@@H](O)C(=O)O [Example 3D, (2R,4R)-5-(2′,5′-Dichlorobiphenyl-4-yl)-2-hydroxy-4-(isobutoxyoxalylamino)-pentanoic Acid]
pKi: ≥9
